Our source for the IC50 values is US20120207763A1, “PYRROLOPYRIMIDINE COMPOUNDS AND THEIR USES” (ASTEX THERAPEUTICS LIMITED, priority 2006, published 2012).

Read-outs that look alike come from different tables or passages of the source. Some results are limits rather than exact numbers.

Test [1] has as its target CDK2/Cyclin-A kinase complex (Homo sapiens, UniProt P24941). Kind of test: CDK2 IMAP fluorescence polarization assay. The class given is biochemical. An excerpt: In order to test the CDK2 activity of the compounds of the invention, the CDK2 assay is a flourescence polarization assay, where the enzyme is a purified active CDK2/Cyclin-A kinase complex and the substrate is a synthesized peptide derived from Histone H1. This assay utilizes the IMAP technology from Molecular Devices. The active CDK2/Cyclin-A complex phosphorylates the peptide substrate, which is conjugated with the TAMRA tag. The phosphorylated site is then recognized by a metal containing molecule that interacts with the TAMRA tag to induce a high flourescence polarization. The compounds that inhibit the CDK2 kinase activity would inhibit the flourescence output of the assay.
In general terms: Polarisation of emitted light reports the rotation of a fluorescent probe.

Another test concerns the target CDK4 (Homo sapiens, UniProt P11802). Kind of test: CDK4 HTRF assay. It counts as biochemical. As to conditions: Table E.
Where [2] appears, read: Table E, read-out: CDK2cyA IMAP/IC50 [umol l − 1].
Where [3] appears, read: read-out: CDK4 HTRF/IC50 [umol l − 1].

CDK4, sequence (P11802 whole entry): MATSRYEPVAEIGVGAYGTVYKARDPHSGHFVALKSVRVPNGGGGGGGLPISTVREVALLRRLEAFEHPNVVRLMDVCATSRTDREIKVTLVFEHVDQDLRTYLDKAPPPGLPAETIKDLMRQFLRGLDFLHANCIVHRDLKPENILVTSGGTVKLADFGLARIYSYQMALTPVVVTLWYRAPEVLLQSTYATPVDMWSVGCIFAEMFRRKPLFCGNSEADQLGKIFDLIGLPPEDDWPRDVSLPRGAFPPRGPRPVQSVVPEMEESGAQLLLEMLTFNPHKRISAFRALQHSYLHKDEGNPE
CDK4, sequence (P24385 whole entry partner): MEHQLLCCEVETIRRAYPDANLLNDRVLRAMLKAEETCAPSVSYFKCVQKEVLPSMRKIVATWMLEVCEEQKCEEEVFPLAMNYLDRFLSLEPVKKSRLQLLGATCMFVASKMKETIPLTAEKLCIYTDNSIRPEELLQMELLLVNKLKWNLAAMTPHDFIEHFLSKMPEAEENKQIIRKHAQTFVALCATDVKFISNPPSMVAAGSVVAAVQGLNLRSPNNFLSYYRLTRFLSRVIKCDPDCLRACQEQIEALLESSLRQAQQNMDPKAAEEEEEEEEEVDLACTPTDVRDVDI

As for `Cc1cn(C2CC2)c2nc(Nc3ccc(N4CCNCC4)cn3)ncc12` [Example 271], the IC50 in test [1] (setting [2]) is > 10 µM.
As for `CC1CCC(n2ccc3cnc(Nc4ccc(N5CCNCC5)cc4)nc32)CC1` (stereo not drawn) [Example 240], the IC50 at CDK4 (setting [3]) is < 1 µM; in test [1] (setting [2]), < 10 µM.
For the compound `c1cc(Nc2ncc3ccn(C4CCCC4)c3n2)ncc1N1CCNCC1` [Example 424], the IC50 at CDK4 (CDK4 HTRF/IC50 [umol l − 1]) is < 1 µM; in test [1] (setting [2]), > 10 µM.
On to `CCN(CC)c1ccc(Nc2ncc3ccn(C4CCCC4)c3n2)cc1` [Example 261], for which the figures for the IC50 (on CDK4 (setting [3]); in test [1] (setting [2])) were > 10 µM and < 10 µM, respectively.
For `Brc1cn(C2CCCC2)c2nc(Nc3ccc(N4CCNCC4)cn3)ncc12` [Example 432], in that order: > 10 µM and > 10 µM.
For `Cc1cn(-c2nccs2)c2nc(Nc3ccc(N4CCNCC4)cn3)ncc12` [Example 321], the IC50 in test [1] (setting [2]) was > 10 µM.
On to `c1ncc(-c2ccc(Nc3ncc4ccn(C5CCCC5)c4n3)cc2)o1` [Example 258], for which the IC50 on CDK4 (setting [3]) is > 10 µM; in test [1] (setting [2]), < 10 µM.
For `Cc1c(Cl)c2cnc(Nc3ccc(N4CCNCC4)cn3)nc2n1C1CCCC1` [Example 334], in that order: < 1 µM and > 10 µM.
For `CC(=O)N1CCN(c2ccc(Nc3ncc4ccn(C5CCOCC5)c4n3)cc2)CC1` [Example 228], in test [1] (setting [2]), the IC50 was < 10 µM.
With `Cc1cn(C2CC2)c2nc(Nc3ccc(N4CCNCC4)cc3)ncc12` [Example 276], the IC50 (at CDK4 (setting [3]); in test [1] (setting [2])) was > 10 µM in each case.
Consider `Cc1cn(C2CCCC2)c2nc(Nc3ncccn3)ncc12` [Example 296], for which the IC50 on CDK4 (setting [3]) is 10 µM; in test [1] (setting [2]), > 10 µM.
For `Clc1cn(C2CCCC2)c2nc(Nc3ccc(N4CCNCC4)cn3)ncc12` [Example 433], in that order: < 1 µM and > 10 µM.
In the case of `CCC(C(=O)OC)n1ccc2cnc(Nc3ccc(N4CCN(C(C)=O)CC4)cc3)nc21` (stereo not drawn) [Example 219], the IC50 in test [1] (setting [2]) is < 10 µM.
On to `Cc1cn(C2CCCC2)c2nc(Nc3ccccc3[N+](=O)[O-])ncc12` [Example 295], for which the IC50 is 10 µM at CDK4 (setting [3]) and > 10 µM in test [1] (setting [2]).
For the compound `CC(=O)N1CCN(c2ccc(Nc3ncc4ccn(C5CCCC(C)C5)c4n3)cc2)CC1` (stereo not drawn) [Example 241], in test [1] (setting [2]), the IC50 was < 10 µM.
In the case of `CCC(=O)N1CCN(c2ccc(Nc3ncc4ccn(C(CC)CC)c4n3)cc2)CC1` [Example 237], the IC50 in test [1] (setting [2]) is < 10 µM.
For the compound `CCC(CC)n1c(C(C)OC)cc2cnc(Nc3ccc(N4CCNCC4)cc3)nc21` (stereo not drawn) [Example 378, [7-(1-Ethyl-propyl)-6-(1-methoxy-ethyl)-7H-pyrrolo[2,3-d]pyrimidin-2-yl]-(4-piperazin-1-yl-phenyl)-amine], the IC50 at CDK4 (setting [3]) is < 1 µM; in test [1] (setting [2]), < 10 µM.
In the case of `CC(=O)N1CCN(c2ccc(Nc3ncc4ccn(C5CCCC5)c4n3)cc2)CC1` [Example 254], in test [1] (setting [2]), the IC50 is < 1 µM.
On the same count and under the same terms, then `Cc1cn(C2CCCC2)c2nc(Nc3ccc(N4CCNCC4)c(F)c3)ncc12` [Example 285], with < 10 µM; and `Cc1cn(C2CCCC2)c2nc(Nc3cccnc3)ncc12` [Example 300], with < 1 µM.
Consider `c1cc(N2CCNCC2)ccc1Nc1ncc2ccn(C3CCCC3)c2n1` [Example 256], for which the values for the IC50 (at CDK4 (setting [3]); in test [1] (setting [2])) were < 1 µM and < 10 µM, respectively.
For `COC(=O)c1c(C)c2cnc(Nc3ccc(N4CCNCC4)cn3)nc2n1C1CCCC1` [Example 384, 7-Cyclopentyl-5-methyl-2-(5-piperazin-1-yl-pyridin-2-ylamino)-7H-pyrrolo[2,3-d]pyrimidine-6-carboxylic acid methyl ester], in that order: < 1 µM and > 10 µM.
`Cc1cn(-c2cccnc2)c2nc(Nc3ccc(N4CCNCC4)cn3)ncc12` [Example 447]: the values for the IC50 (on CDK4 (setting [3]); in test [1] (setting [2])) were 10 µM and > 10 µM, respectively.
Regarding `Cc1cn(-c2ccccc2)c2nc(Nc3ccc(N4CCNCC4)cc3)ncc12` [Example 437], in test [1] (setting [2]), the IC50 was > 10 µM.
Still for that read-out and setting: the result for `CCC(CC)n1c(C(=O)NC2CCCC2)cc2cnc(Nc3ccc(N4CCNCC4)cc3)nc21` [Example 344] reads > 10 µM.
On the same count and under the same terms, the result for `CN(C)CC1CCC(n2ccc3cnc(Nc4ccc(N5CCNCC5)cc4)nc32)C1` (stereo not drawn) [Example 249] reads < 10 µM; that for `Cc1cn(-c2cccnc2)c2nc(Nc3ccc(N4CCNCC4)cc3)ncc12` [Example 322], > 10 µM.
In the case of `OC1CCCC(n2ccc3cnc(Nc4ccc(N5CCNCC5)cc4)nc32)C1` (stereo not drawn) [Example 244], the IC50 (on CDK4 (setting [3]); in test [1] (setting [2])) was < 1 µM each time.
`CC(=O)N1CCN(c2ccc(Nc3ncc4ccn(C5CCCC5)c4n3)nc2)CC1` [Example 252]: the IC50 in test [1] (setting [2]) was > 10 µM.
With `Cc1cn(-c2ccccn2)c2nc(Nc3ccc(N4CCNCC4)cn3)ncc12` [Example 320, (5-Methyl-7-pyridin-2-yl-7H-pyrrolo[2,3-d]pyrimidin-2-yl)-(5-piperazin-1-yl-pyridin-2-yl)-amine], the IC50 in test [1] (setting [2]) is > 10 µM.
Turning to `Cc1cn(-c2nccs2)c2nc(Nc3ccc(N4CCN(S(C)(=O)=O)CC4)cn3)ncc12` [Example 446], the IC50 at CDK4 (setting [3]) is 10 µM; in test [1] (setting [2]), < 10 µM.
For `Cc1ccc(Nc2ncc3ccn(C4CCCC4)c3n2)nc1` [Example 434] the same measures were > 10 µM and > 10 µM.
In the case of `CCC(C(=O)OC)n1ccc2cnc(Nc3ccc(N4CCNCC4)cc3)nc21` (stereo not drawn) [Example 221], in test [1] (setting [2]), the IC50 was < 10 µM.
As to `CN(C)c1ccc(Nc2ncc3ccn(C4CCCC4)c3n2)cc1` [Example 262], the IC50 at CDK4 (setting [3]) is > 10 µM; in test [1] (setting [2]) it was < 10 µM.
On to `CCc1cn(C2CCCC2)c2nc(Nc3ccc(N4CCNCC4)cc3)ncc12` [Example 438], for which the IC50 in test [1] (setting [2]) is < 10 µM.
Still for that read-out and setting: then `CN1CCN(c2ccc(Nc3ncc4ccn(C5CCCC5)c4n3)cc2)CC1` [Example 253], with < 10 µM.
With `Cc1cn(C2CCCC2)c2nc(Nc3ccccc3C#N)ncc12` [Example 301], the IC50 on CDK4 (setting [3]) was 10 µM; in test [1] (setting [2]), > 10 µM.
In the case of `c1cc(N2CCNCC2)ccc1Nc1ncc2ccn(C3CCOCC3)c2n1` [Example 235], the IC50 in test [1] (setting [2]) was > 10 µM.
The same measure, in the same setting: then `CC(=O)N1CCN(c2ccc(Nc3ncc4ccn(C5CCCCC5=O)c4n3)cc2)CC1` (stereo not drawn) [Example 226], with > 10 µM.
For the compound `COc1cccc(Nc2ncc3c(C)cn(C4CCCC4)c3n2)c1` [Example 294], the IC50 is 10 µM at CDK4 (setting [3]) and < 10 µM in test [1] (setting [2]).
Turning to `CC1CN(C2CCCC2)c2nc(Nc3ccc(N4CCN(C)CC4)cc3)ncc21` (stereo not drawn), the IC50 in test [1] (Table C, read-out: CDK2 IC50) was > 10 µM.
With `CCC(CC)n1c(C(=O)Nc2ccccc2)cc2cnc(Nc3ccc(N4CCNCC4)cc3)nc21` [Example 345], the results for the IC50 (at CDK4 (setting [3]); in test [1] (setting [2])) were < 1 µM and < 10 µM, respectively.
In the case of `CCC(C(N)=O)n1ccc2cnc(Nc3ccc(N4CCN(C(C)=O)CC4)cc3)nc21` (stereo not drawn) [Example 227], the IC50 in test [1] (setting [2]) was < 10 µM.
As to `CCC(CC)n1c(C(=O)N2CCOCC2)cc2cnc(Nc3ccc(N4CCNCC4)cc3)nc21` [Example 343], the IC50 in test [1] (setting [2]) is > 10 µM.
As to `CCOC(=O)C(C(C)C)n1ccc2cnc(Nc3ccc(N4CCN(C(C)=O)CC4)cc3)nc21` (stereo not drawn) [Example 223], in test [1] (setting [2]), the IC50 is > 10 µM.
As for `CCC(CC)n1ccc2cnc(Nc3ccc(N4CCN(C(C)=O)CC4)cc3)nc21` [Example 201], the IC50 in test [1] (setting [2]) is < 10 µM.
As to `CC(=O)N1CCN(c2ccc(Nc3ncc4ccn(C5CCC(C)CC5)c4n3)cc2)CC1` (stereo not drawn) [Example 236], the IC50 in test [1] (setting [2]) is < 1 µM.
As for `CCC(C(N)=O)n1ccc2cnc(Nc3ccc(N4CCNCC4)cc3)nc21` (stereo not drawn) [Example 234], in test [1] (setting [2]), the IC50 is > 10 µM.
On the same count and under the same terms, then `Cc1cn(C2CCCC2)c2nc(Nc3ccc(S(N)(=O)=O)cc3)ncc12` [Example 288], with < 1 µM; and `CC(C)c1cn(C2CCCC2)c2nc(Nc3ccc(N4CCNCC4)cn3)ncc12` [Example 440], with > 10 µM.
Same read-out and setting: the result for `Cc1cc(-c2c(C)c3cnc(Nc4ccc(N5CCNCC5)cn4)nc3n2C2CCCC2)on1` [Example 405] reads > 10 µM; that for `CCC(C)n1ccc2cnc(Nc3ccc(N4CCN(C(C)=O)CC4)cc3)nc21` (stereo not drawn) [Example 222], < 10 µM.
On to `CC(=O)N1CCN(c2ccc(Nc3ncc4c(C)cn(C5CCCCC5)c4n3)cc2)CC1` [Example 274], for which the IC50 in test [1] (setting [2]) is > 10 µM.
Still for that read-out and setting: the result for `Cc1cn(C2CCCC2)c2nc(Nc3ccc(N4CCNCC4)nc3)ncc12` [Example 283] reads > 10 µM; that for `CCC(CC)n1c(C(=O)N2CCCC2)cc2cnc(Nc3ccc(N4CCNCC4)cc3)nc21` [Example 337], > 10 µM; that for `CCCCNC(=O)c1cc2cnc(Nc3ccc(N4CCNCC4)cc3)nc2n1C(CC)CC` [Example 336], > 10 µM.
Still for that read-out and setting: the result for `Cc1cn(C2CCCC2)c2nc(Nc3ccc(N4CCN(S(C)(=O)=O)CC4)cc3)ncc12` [Example 286] reads < 10 µM; that for `Cc1cn(C2CCCC2)c2nc(Nc3ccncc3)ncc12` [Example 298], < 1 µM; that for `CCC(CC)n1c(C(=O)OC)cc2cnc(Nc3ccc(N4CCN(C(C)=O)CC4)cc3)nc21` [Example 373, 2-[4-(4-Acetyl-piperazin-1-yl)-phenylamino]-7-(1-ethyl-propyl)-7H-pyrrolo[2,3-d]pyrimidine-6-carboxylic acid methyl ester], < 10 µM.
Still for that read-out and setting: the result for `CC(=O)c1c(C)c2cnc(Nc3ccc(N4CCNCC4)cn3)nc2n1C1CCOCC1` [Example 388] reads > 10 µM; that for `Cc1cn(C2CC2)c2nc(Nc3ccc(N4CCN(C)CC4)cc3)ncc12` [Example 270], > 10 µM; that for `CCC(CC)n1c(CNC(C)C)cc2cnc(Nc3ccc(N4CCN(C(C)=O)CC4)cc3)nc21` [Example 366], < 10 µM.
For the compound `CCC(CC)n1c(CNC(C)C)cc2cnc(Nc3ccc(N4CCNCC4)cc3)nc21` [Example 367], the IC50 in test [1] (setting [2]) is < 10 µM.
